Assay results as given in patent US5658781A, “Insecticidally effective peptides” (priority 1995, dated 1997).

Assays:
[1] = test system: maggot peripheral nerves; test: Extracellular recording from house fly larval peripheral nerves; format: cell-based, Musca domestica
[2] = test system: maggot neuromuscular junction; test: Neuromuscular junction EPSP recording in house fly larvae; format: cell-based, Musca domestica
[3] = test system: mice; format: in vivo; settings: i.p., approximate dose 0.9 mg/kg
Protocol: Whole venom, 5 μl, obtained from D. canities as described herein was fatal to mice by intraperitoneal injection (i.p.) in three separate tests. Treated mice were initially indistinguishable from saline controls. About 10 to 15 minutes after injection, treated mice became moderately hyperactive, displaying a characteristic hopping gait; this was followed by a short period of uncoordination, labored breathing and convulsions. Death followed within 2 minutes of the initial onset of symptoms.
Residue 9.2 was injected into the intracerebral ventricles in four mice (approx. 28 gm) at a dose of approximately 30 μg per animal (approximately 1 mg/kg).
To characterize the vertebrate toxicity of this venom, pooled reversed-phase fractions of whole venom were tested in mice (FIG. 1). Fraction 2 comprised the components with tobacco budworm (TBW) activity.

[4] = test system: beet armyworm (Spodoptera exigua); test: Toxin injection PD50 in BAW larvae; format: in vivo
[5] = test system: tobacco budworm (Heliothis virescens); test: Injection paralysis assay in tobacco budworm larvae; format: in vivo
[6] = test system: cabbage looper (Trichoplusia ni); test: Toxin injection PD50 in CL larvae; format: in vivo

Row | Molecule | effect on DK 9.2-induced increase in nerve discharge [1] | effect on sensitivity to subsequent treatment with 100 nM DK 9.2 [2] | effect on the EPSP [2] | effects in mice within 24 hours [3] | PD50 [4] [nmol/gm] | PD50 ([5]; TBW larvae, injection, probit analysis) [nmol/gm] | insects exhibiting paralysis after 24 hours ([5]; TBW, 5.0 WVE/g, 24 hours) [%] | insects exhibiting paralysis after 48 hours ([5]; TBW, 5.0 WVE/g, 48 hours) [%] | PD50 [6] [nmol/gm]
1 | NC1=N[C@H](O)[C@H]2[C@H]3O[C@]4(O)O[C@@H]([C@@H](O)[C@@]2(N1)[C@@H]4O)[C@]3(O)CO [TTX, tetrodotoxin] | rapidly blocked | rendered the preparation insensitive | rapidly blocked |  |  |  |  |  | 
2 | DK 11: Insecticidal peptide isolated from Diguetia canities venom, SEQ ID NO:3, about 6700 or 6740 daltons (AKDGDVKGPAGCMKYKSGDCRGKTCCDQQ) |  |  |  | no effects seen | < 1.5 | 0.71 | 80 | 60 | 0.86
